Assay results from US8067613B2 (Abbott Laboratories, priority 2007, dated 2011).

biological target: T1, Recombinant Human Poly(ADP-Ribose)Polymerase (PARP), PARP-1 (Homo sapiens, UniProt P09874); assay: PARP1 assay (SPA/FlashPlate, [3H]-NAD+ incorporation into biotinylated histone H1); assay type: biochemical; conditions: 1 nM PARP enzyme, 1.5 μM [3H]-NAD+, 200 nM biotinylated histone H1, 200 nM slDNA; Ki from inhibition curves at various substrate concentrations
T1 construct: purchased Trevigen (Gaithersburg, Md.); host or cells: E. coli
Experimental: Nicotinamide[2,5′,8-3H]adenine dinucleotide and strepavidin SPA beads were obtained from Amersham Biosiences (UK). Recombinant Human Poly(ADP-Ribose)Polymerase (PARP), purified from E. coli and 6-Biotin-17-NAD^+, were obtained from Trevigen (Gaithersburg, Md.). NAD^+, histone, aminobenzamide, 3-aminobenzamide and Calf Thymus DNA (dcDNA) were obtained from Sigma (St. Louis, Mo.). Stem loop oligonucleotide containing MCAT sequence was obtained from Qiagen. The oligos were dissolved to 1 mM in annealing buffer containing 10 mM Tris HCl (pH 7.5), 1 mM EDTA, and 50 mM NaCl, incubated for 5 minutes at 95° C. and annealed at 45° C. for 45 minutes. Histone H1 (95% electrophoretically pure) was obtained from Roche (Indianapolis, Ind. Biotinylated histone H1 was prepared by treating the protein with Sulfo-NHS-LC-Biotin (Pierce Rockford, Ill.). The biotinylation reaction was conducted by slowly and intermittently adding 3 equivalents of 10 mM Sulfo-NHS-LC-Biotin to 100 μM Histone H1 in phosphate-buffered saline, pH 7.5, at 4° C. with gentle vortexing over 1 minute then incubation at 4° C. for 1 hour. Streptavidin coated (FlashPlate Plus) microplates were obtained from Perkin Elmer (Boston, Mass.).
PARP1 assay was conducted in PARP assay buffer containing 50 mM tris (pH 8.0), 1 mM DTT and 4 mM MgCl2. PARP reactions contained 1.5 μM [^3H]-NAD^+ (1.6 μCi/mmol), 200 nM biotinylated histone H1, 200 nM slDNA, and 1 nM PARP enzyme. Auto reactions utilizing SPA bead-based detection were carried out in 100 μL volumes in white 96 well plates.
Reactions were initiated by adding 50 μL of 2×NAD^+ substrate mixture to 50 μL of 2× enzyme mixture containing PARP and DNA. These reactions were terminated by the addition of 150 μL of 1.5 mM benzamide (1000-fold over its IC50). 170 μL of the stopped reaction mixtures were transferred to streptavidin Flash Plates, incubated for 1 hour and counted using a TopCount microplate scintillation counter. The Ki data (in nM) for representative compounds of this invention were determined from inhibition curves at various substrate concentrations and are shown in TABLE 1.

T1 sequence (P09874 whole entry): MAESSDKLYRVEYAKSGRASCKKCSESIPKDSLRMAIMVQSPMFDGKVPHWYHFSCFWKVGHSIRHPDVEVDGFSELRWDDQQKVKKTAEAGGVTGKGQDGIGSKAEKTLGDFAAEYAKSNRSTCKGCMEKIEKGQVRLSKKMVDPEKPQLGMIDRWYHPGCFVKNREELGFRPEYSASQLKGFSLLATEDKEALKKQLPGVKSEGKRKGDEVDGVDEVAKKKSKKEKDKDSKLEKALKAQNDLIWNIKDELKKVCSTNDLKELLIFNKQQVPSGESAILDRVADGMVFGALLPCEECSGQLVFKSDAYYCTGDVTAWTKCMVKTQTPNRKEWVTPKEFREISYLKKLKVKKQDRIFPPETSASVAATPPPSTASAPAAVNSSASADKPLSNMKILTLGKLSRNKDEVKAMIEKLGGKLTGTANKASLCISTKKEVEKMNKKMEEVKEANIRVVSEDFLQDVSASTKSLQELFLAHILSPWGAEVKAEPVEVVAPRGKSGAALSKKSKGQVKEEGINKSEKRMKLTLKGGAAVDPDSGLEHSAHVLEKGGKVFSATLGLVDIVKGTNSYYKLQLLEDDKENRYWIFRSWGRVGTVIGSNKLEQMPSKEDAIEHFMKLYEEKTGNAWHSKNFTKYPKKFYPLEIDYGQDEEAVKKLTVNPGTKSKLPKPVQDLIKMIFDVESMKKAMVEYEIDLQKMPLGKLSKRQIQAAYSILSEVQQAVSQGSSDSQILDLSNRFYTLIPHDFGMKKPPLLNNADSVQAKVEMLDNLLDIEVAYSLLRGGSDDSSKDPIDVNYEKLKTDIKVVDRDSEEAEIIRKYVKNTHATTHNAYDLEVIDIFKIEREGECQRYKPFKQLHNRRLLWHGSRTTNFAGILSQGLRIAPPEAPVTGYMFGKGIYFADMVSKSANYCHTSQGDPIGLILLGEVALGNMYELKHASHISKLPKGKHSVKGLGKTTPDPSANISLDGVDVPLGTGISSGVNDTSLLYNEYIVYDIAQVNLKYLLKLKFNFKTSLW

| SMILES | Ki |
| --- | --- |
| CC(C)CN1CCC[C@@H]1c1ccc(-c2nc3c(C(N)=O)cccc3[nH]2)s1 [Example 27, 2-(5-((2R)-1-isobutylpyrrolidin-2-yl)thien-2-yl)-1H-benzimidazole-4-carboxamide] | 8 nM |
| NC(=O)c1cccc2[nH]c(-c3ccc(C4CCCCN4C4CCC4)s3)nc12 (stereo not shown) [Example 32, 2-(5-(1-cyclobutylpiperidin-2-yl)thien-2-yl)-1H-benzimidazole-4-carboxamide] | 23 nM |
| CCCN1CCCC1c1ccc(-c2nc3c(C(N)=O)cccc3[nH]2)s1 (stereo not shown) [Example 37, 2-(5-(1-propylpyrrolidin-2-yl)thien-2-yl)-1H-benzimidazole-4-carboxamide] | 7 nM |
| NC(=O)c1cccc2[nH]c(-c3ccc(-c4ccncc4)s3)nc12 [Example 14, 2-(5-pyridin-4-ylthien-2-yl)-1H-benzimidazole-4-carboxamide] | 3.2 nM |
| NC(=O)c1cccc2[nH]c(-c3ccc(-c4cccnc4)s3)nc12 [Example 13, 2-(5-pyridin-3-ylthien-2-yl)-1H-benzimidazole-4-carboxamide] | 2.4 nM |
| CCCN1CCC[C@@H]1c1ccc(-c2nc3c(C(N)=O)cccc3[nH]2)s1 [Example 19, 2-(5-((2R)-1-propylpyrrolidin-2-yl)thien-2-yl)-1H-benzimidazole-4-carboxamide] | 8 nM |
| CC(C)N1CCCC1c1ccc(-c2nc3c(C(N)=O)cccc3[nH]2)s1 (stereo not shown) [Example 36, 2-(5-(1-isopropylpyrrolidin-2-yl)thien-2-yl)-1H-benzimidazole-4-carboxamide] | 5 nM |
| NC(=O)c1cccc2[nH]c(-c3ccc(C4CCCN4C4CCC4)nc3)nc12 (stereo not shown) [Example 46, 2-[6-(1-cyclobutylpyrrolidin-2-yl),pyridin-3-yl]-1H-benzimidazole-4-carboxamide] | 17 nM |
| NC(=O)c1cccc2[nH]c(-c3ccc([C@H]4CCCN4C4CCCC4)s3)nc12 [Example 22, 2-(5-((2R)-1-cyclopentylpyrrolidin-2-yl)thien-2-yl)-1H-benzimidazole-4-carboxamide] | 3 nM |
| NC(=O)c1cccc2[nH]c(-c3ccc([C@H]4CCCN4)s3)nc12 [Example 16, 2-(5-((2R)-pyrrolidin-2-yl)thien-2-yl)-1H-benzimidazole-4-carboxamide] | 6 nM |
| CC(C)CN1CCCC1c1ccc(-c2nc3c(C(N)=O)cccc3[nH]2)cn1 (stereo not shown) [Example 45, 2-[6-(1-isobutylpyrrolidin-2-yl),pyridin-3-yl]-1H-benzimidazole-4-carboxamide] | 11 nM |
| NC(=O)c1cccc2[nH]c(-c3ccc(C4CCCN4C4CCC4)s3)nc12 (stereo not shown) [Example 40, 2-(5-(1-cyclobutylpyrrolidin-2-yl)thien-2-yl)-1H-benzimidazole-4-carboxamide] | 10 nM |
| NC(=O)c1cccc2[nH]c(-c3ccc(-c4ncccn4)s3)nc12 [Example 12, 2-(5-pyrimidin-2-ylthien-2-yl)-1H-benzimidazole-4-carboxamide] | 9 nM |
| CN1CCCC1c1ccc(-c2nc3c(C(N)=O)cccc3[nH]2)s1 (stereo not shown) [Example 35, 2-(5-(1-methylpyrrolidin-2-yl)thien-2-yl)-1H-benzimidazole-4-carboxamide] | 7 nM |
| CCCN1CCCCC1c1ccc(-c2nc3c(C(N)=O)cccc3[nH]2)s1 (stereo not shown) [Example 30, 2-(5-(1-propylpiperidin-2-yl)thien-2-yl)-1H-benzimidazole-4-carboxamide] | 16 nM |
| NC(=O)c1cccc2[nH]c(-c3csc(C4CCNCC4)n3)nc12 [Example 5, 2-(2-piperidin-4-yl-1,3-thiazol-4-yl)-1H-benzimidazole-4-carboxamide] | 32 nM |
| NC(=O)c1cccc2[nH]c(-c3ccc(C4CCCN4C4CCOCC4)nc3)nc12 (stereo not shown) [Example 49, 2-[6-(1-tetrahydro-2H-pyran-4-ylpyrrolidin-2-yl),pyridin-3-yl]-1H-benzimidazole-4-carboxamide] | 17 nM |
| NC(=O)c1cccc2[nH]c(-c3ccc(C4CCCN4C4CCCCC4)s3)nc12 (stereo not shown) [Example 42, 2-(5-(1-cyclohexylpyrrolidin-2-yl)thien-2-yl)-1H-benzimidazole-4-carboxamide] | 12 nM |
| NC(=O)c1cccc2[nH]c(-c3ccc(-c4cnccn4)s3)nc12 [Example 11, 2-(5-pyrazin-2-ylthien-2-yl)-1H-benzimidazole-4-carboxamide] | 2 nM |

| SMILES | Ki |
| --- | --- |
| NC(=O)c1cccc2[nH]c(-c3ccc(-c4nnc(C(F)(F)F)o4)cn3)nc12 [Example 52, 2-{5-[5-(trifluoromethyl)-1,3,4-oxadiazol-2-yl]pyridin-2-yl}-1H-benzimidazole-4-carboxamide] | 14 nM |
| NC(=O)c1cccc2[nH]c(-c3ccc([C@H]4CCCN4C4CCCCC4)s3)nc12 [Example 23, 2-(5-((2R)-1-cyclohexylpyrrolidin-2-yl)thien-2-yl)-1H-benzimidazole-4-carboxamide] | 8 nM |
| NC(=O)c1cccc2[nH]c(-c3ccc(-c4ccc[nH]4)s3)nc12 [Example 15, 2-(5-(1H-pyrrol-2-yl)thien-2-yl)-1H-benzimidazole-4-carboxamide] | 5 nM |
| Cc1nnc(-c2ccc(-c3nc4c(C(N)=O)cccc4[nH]3)nc2)o1 [Example 53, 2-[5-(5-methyl-1,3,4-oxadiazol-2-yl)pyridin-2-yl]-1H-benzimidazole-4-carboxamide] | 317 nM |
| NC(=O)c1cccc2[nH]c(-c3ccc(C4CCCN4)s3)nc12 (stereo not shown) [Example 34, 2-(5-pyrrolidin-2-ylthien-2-yl)-1H-benzimidazole-4-carboxamide] | 7 nM |
| NC(=O)c1cccc2[nH]c(-c3ccc(-c4nnco4)cn3)nc12 [Example 51, 2-[5-(1,3,4-oxadiazol-2-yl)pyridin-2-yl]-1H-benzimidazole-4-carboxamide] | 1.8 nM |
| CC(C)N1CCC(c2nc(-c3nc4c(C(N)=O)cccc4[nH]3)cs2)CC1 [Example 7, 2-(2-(1-isopropylpiperidin-4-yl)-1,3-thiazol-4-yl)-1H-benzimidazole-4-carboxamide] | 61 nM |
| NC(=O)c1cccc2[nH]c(-c3ccc([C@H]4CCCN4Cc4ccccn4)s3)nc12 [Example 25, 2-(5-((2R)-1-(pyridin-2-ylmethyl)pyrrolidin-2-yl)thien-2-yl)-1H-benzimidazole-4-carboxamide] | 10 nM |
| NC(=O)c1cccc2[nH]c(-c3ccc(C4CCCN4C4CCCC4)nc3)nc12 (stereo not shown) [Example 47, 2-[6-(1-cyclopentylpyrrolidin-2-yl),pyridin-3-yl]-1H-benzimidazole-4-carboxamide] | 14 nM |
| CC(C)CN1CCCC1c1ccc(-c2nc3c(C(N)=O)cccc3[nH]2)s1 (stereo not shown) [Example 39, 2-(5-(1-isobutylpyrrolidin-2-yl)thien-2-yl)-1H-benzimidazole-4-carboxamide] | 11 nM |
| NC(=O)c1cccc2[nH]c(-c3ccc(C4CCCN4CC4CC4)s3)nc12 (stereo not shown) [Example 38, 2-(5-(1-(cyclopropylmethyl)pyrrolidin-2-yl)thien-2-yl)-1H-benzimidazole-4-carboxamide] | 6 nM |
| NC(=O)c1cccc2[nH]c(-c3ccc([C@H]4CCCN4C4CCC4)s3)nc12 [Example 21, 2-(5-((2R)-1-cyclobutylpyrrolidin-2-yl)thien-2-yl)-1H-benzimidazole-4-carboxamide] | 4 nM |
| NC(=O)c1cccc2[nH]c(-c3ccc(C4CCCCN4CC4CC4)s3)nc12 (stereo not shown) [Example 31, 2-(5-(1-(cyclopropylmethyl)piperidin-2-yl)thien-2-yl)-1H-benzimidazole-4-carboxamide] | 11 nM |
| NC(=O)c1cccc2[nH]c(-c3csc(-c4cccs4)n3)nc12 [Example 4, 2-(2-thien-2-yl-1,3-thiazol-4-yl)-1H-benzimidazole-4-carboxamide] | 20.9 nM |
| CC(C)CN1CCCCC1c1ccc(-c2nc3c(C(N)=O)cccc3[nH]2)s1 (stereo not shown) [Example 33, 2-(5-(1-isobutylpiperidin-2-yl)thien-2-yl)-1H-benzimidazole-4-carboxamide] | 21 nM |
| NC(=O)c1cccc2[nH]c(-c3ccc(C4CCCN4C4CCCCC4)nc3)nc12 (stereo not shown) [Example 48, 2-[6-(1-cyclohexylpyrrolidin-2-yl),pyridin-3-yl]-1H-benzimidazole-4-carboxamide] | 14 nM |
| CCCN1CCC(c2nc(-c3nc4c(C(N)=O)cccc4[nH]3)cs2)CC1 [Example 8, 2-(2-(1-propylpiperidin-4-yl)-1,3-thiazol-4-yl)-1H-benzimidazole-4-carboxamide] | 50 nM |
| NC(=O)c1cccc2[nH]c(-c3ccc([C@H]4CCCN4C4CCOCC4)s3)nc12 [Example 24, 2-(5-((2R)-1-tetrahydro-2H-pyran-4-ylpyrrolidin-2-yl)thien-2-yl)-1H-benzimidazole-4-carboxamide] | 12 nM |
